Assay results reported in US20100143452A1, “POLYPHENOL CONTAINING COMPOSITIONS” (Universiteit Utrecht Holding B.V., priority 2006, published 2010).

Tests used:
[1] = tested on: B16 murine melanoma and C26 murine colon carcinoma; assay: tumor growth in B16 or C26-tumor bearing mice; assay type: in vivo; conditions: i.v. 20 mg/kg, between day 7 and day 14, after a second injection at day 7
Method: B16 murine melanoma and C26 murine colon carcinoma cells were cultured at 37° C. in a 5% CO2-containing humidified atmosphere in DMEM medium (Gibco, Breda, The Netherlands) containing 10% (v/v) fetal calf serum supplemented with 2 mM L-glutamine, 100 IU/ml penicillin, 100 microgram/ml streptomycin and 0.25 microgram/ml amphotericin B (Gibco). Male Balb/c and C57B1/6 mice (6-8 weeks of age) were obtained from Charles River, kept in standard housing with standard rodent chow and water available ad libitum, and a 12 h light/dark cycle. Experiments were performed according to national regulations and approved by the local animal experiments ethical committee. Mice received a single intravenous injection of an indicated dose of free caffeic acid or liposomal caffeic acid prepared in Example 1 at the time when the tumor became palpable. At 7 days after treatment, tumor size was measured and tumor volume calculated according to the equation V=0.52×a^2×b, wherein a is the smallest and b is the largest superficial diameter. […] Tumor size was measured regularly, and tumor volume was calculated as described above. For the statistical analysis, data were analysed by one-way ANOVA with Dunnett's post test using GraphPad InStat version 3.05 for Windows, GraphPad Software (San Diego, USA). […] Spearman rank correlation coefficient was calculated to identify dose-response. […]

[2] = oral ingestion, best case scenario; cited from earlier work
[3] = tested on: cells; conditions: 80 micomoles of naringenin per liter, for 24 hours; cited from earlier work
[4] = dietary (ingested) polyphenols; cited from earlier work

SMILES: O=C(O)/C=C/c1ccc(O)c(O)c1 [free caffeic acid, caffeic acid]
- effect on tumor volume [1]: did not reduce tumor volume

SMILES: O=C1C[C@@H](c2ccc(O)cc2)Oc2cc(O)cc(O)c21 [naringenin]
- ingested amount absorbed in the human gastrointestinal tract [2]: ≤ 15%
- reduction of hydroxyl damage to the DNA [3]: 24%

SMILES: O=c1c(O)c(-c2ccc(O)c(O)c2)oc2cc(O)cc(O)c12 [quercetin]
- bioavailability [4]: 1-5%
